The results in this text go back to BindingDB's records for doi:10.1038/sj.npp.1300203 (Case Western Reserve University, 2003).

Assay [1] deals with Protein kinase C alpha type (Homo sapiens, UniProt P17252).
In assay [2] the target is Protein kinase C gamma type (Homo sapiens, UniProt P05129).
In assay [3] the target is Gamma-aminobutyric acid type B receptor subunit 1 (UniProt Q9Z0U4).
The next assay concerns the target Histamine H4 receptor (Homo sapiens, UniProt Q9H3N8).
The target of assay [4] is Prostaglandin E2 receptor EP4 subtype (Homo sapiens, UniProt P35408).
Sequence of Prostaglandin E2 receptor EP4 subtype (P35408 whole entry): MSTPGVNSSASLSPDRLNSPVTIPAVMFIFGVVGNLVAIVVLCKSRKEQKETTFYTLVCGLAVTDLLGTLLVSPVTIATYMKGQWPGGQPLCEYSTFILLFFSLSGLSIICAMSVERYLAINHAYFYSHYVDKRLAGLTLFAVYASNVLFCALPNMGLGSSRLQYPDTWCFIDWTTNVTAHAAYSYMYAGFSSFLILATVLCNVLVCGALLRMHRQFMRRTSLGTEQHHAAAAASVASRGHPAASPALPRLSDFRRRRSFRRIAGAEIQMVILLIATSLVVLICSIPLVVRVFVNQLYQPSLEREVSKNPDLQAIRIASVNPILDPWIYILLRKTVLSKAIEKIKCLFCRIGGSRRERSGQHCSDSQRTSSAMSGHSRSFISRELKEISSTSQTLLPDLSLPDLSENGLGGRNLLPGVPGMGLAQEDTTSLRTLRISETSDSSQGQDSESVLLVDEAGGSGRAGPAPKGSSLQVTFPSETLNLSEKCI
Assay [5] concerns the target T1, Prostaglandin E2 receptor EP3 subtype (Homo sapiens, UniProt P43115).
T1 sequence (P43115 whole entry): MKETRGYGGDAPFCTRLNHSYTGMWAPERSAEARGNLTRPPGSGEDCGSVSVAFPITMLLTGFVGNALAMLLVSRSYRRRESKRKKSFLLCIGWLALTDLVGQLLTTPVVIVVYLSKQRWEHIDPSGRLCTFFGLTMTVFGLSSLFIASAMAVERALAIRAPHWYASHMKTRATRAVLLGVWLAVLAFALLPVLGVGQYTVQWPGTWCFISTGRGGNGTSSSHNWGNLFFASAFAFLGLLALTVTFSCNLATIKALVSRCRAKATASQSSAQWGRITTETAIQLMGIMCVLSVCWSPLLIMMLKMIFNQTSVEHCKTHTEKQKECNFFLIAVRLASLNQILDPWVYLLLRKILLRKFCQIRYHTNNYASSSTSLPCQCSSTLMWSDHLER

Assay [6] addresses T2, 5-hydroxytryptamine receptor 3A (Rattus norvegicus, UniProt P35563).
T2 sequence (P35563 whole entry): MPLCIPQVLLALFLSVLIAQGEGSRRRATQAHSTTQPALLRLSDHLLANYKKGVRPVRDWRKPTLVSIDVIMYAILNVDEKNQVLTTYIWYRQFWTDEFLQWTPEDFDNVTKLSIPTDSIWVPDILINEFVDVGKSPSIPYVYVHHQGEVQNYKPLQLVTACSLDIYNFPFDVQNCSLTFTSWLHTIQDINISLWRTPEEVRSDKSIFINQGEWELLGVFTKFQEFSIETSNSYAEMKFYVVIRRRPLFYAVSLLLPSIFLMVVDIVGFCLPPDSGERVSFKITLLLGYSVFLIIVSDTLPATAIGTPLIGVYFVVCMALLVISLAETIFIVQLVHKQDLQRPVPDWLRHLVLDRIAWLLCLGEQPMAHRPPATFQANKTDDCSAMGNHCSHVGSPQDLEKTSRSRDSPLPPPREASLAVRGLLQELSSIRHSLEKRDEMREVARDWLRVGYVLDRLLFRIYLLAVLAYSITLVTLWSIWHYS

In the next assay the target is Histamine H3 receptor (Cavia porcellus, UniProt Q9JI35).
Sequence of Histamine H3 receptor (Q9JI35 whole entry): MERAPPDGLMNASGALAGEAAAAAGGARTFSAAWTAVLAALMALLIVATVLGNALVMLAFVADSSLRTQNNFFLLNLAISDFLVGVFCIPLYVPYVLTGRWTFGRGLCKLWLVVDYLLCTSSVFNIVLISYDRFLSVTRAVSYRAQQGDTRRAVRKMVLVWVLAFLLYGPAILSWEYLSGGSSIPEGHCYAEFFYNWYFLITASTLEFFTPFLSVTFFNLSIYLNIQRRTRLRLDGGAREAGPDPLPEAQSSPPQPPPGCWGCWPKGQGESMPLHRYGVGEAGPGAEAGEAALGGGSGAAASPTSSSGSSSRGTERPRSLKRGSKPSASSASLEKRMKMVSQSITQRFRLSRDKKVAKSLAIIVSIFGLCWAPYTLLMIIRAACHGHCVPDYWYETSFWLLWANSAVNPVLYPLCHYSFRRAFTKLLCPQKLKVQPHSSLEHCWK

Sequence of Gamma-aminobutyric acid type B receptor subunit 1 (Q9Z0U4 whole entry): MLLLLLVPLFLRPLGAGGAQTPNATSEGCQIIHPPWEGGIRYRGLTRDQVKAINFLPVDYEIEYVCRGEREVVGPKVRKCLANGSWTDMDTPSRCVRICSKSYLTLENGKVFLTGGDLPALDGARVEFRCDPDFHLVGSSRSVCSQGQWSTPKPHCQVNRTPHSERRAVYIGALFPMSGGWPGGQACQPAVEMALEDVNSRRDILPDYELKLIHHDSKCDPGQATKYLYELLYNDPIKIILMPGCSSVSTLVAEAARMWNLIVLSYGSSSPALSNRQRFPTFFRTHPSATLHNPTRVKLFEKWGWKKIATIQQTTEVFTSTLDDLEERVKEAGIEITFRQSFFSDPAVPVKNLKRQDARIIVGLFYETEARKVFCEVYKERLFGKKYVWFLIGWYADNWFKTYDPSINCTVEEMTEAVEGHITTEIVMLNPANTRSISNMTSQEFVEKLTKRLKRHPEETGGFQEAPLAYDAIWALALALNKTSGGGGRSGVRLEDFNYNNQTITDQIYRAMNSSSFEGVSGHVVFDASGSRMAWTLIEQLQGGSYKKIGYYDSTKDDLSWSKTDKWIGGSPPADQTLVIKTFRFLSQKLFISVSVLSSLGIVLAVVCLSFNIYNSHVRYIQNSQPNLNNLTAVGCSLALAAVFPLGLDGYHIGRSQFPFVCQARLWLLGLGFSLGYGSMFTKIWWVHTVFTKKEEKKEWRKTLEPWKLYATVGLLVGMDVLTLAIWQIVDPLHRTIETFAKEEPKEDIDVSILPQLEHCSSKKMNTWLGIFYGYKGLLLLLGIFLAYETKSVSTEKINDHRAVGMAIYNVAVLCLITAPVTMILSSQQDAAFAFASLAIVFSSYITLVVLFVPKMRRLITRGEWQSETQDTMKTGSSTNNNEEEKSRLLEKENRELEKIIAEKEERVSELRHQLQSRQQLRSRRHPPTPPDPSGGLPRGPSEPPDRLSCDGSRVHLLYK
Sequence of Histamine H4 receptor (Q9H3N8 whole entry): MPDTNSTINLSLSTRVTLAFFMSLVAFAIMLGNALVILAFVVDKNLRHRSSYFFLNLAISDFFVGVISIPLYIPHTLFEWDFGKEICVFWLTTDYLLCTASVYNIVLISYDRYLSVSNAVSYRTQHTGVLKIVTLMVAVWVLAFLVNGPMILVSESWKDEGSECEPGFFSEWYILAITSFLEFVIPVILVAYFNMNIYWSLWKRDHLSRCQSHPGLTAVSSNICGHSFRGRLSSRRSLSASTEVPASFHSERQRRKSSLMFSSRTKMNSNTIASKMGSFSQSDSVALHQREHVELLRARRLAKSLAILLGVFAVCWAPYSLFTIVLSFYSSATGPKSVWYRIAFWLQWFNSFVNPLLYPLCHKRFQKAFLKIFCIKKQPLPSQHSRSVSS

One may read the Ki as the dissociation constant of the complex between target and ligand, obtained from inhibition or displacement. Lower therefore signals tighter binding. Regarding `O=C1CCc2ccc(OCCCCN3CCN(c4cccc(Cl)c4Cl)CC3)cc2N1` [7-{4-[4-(2,3-dichlorophenyl)piperazin-1-yl]butoxy}-3,4-dihydroquinolin-2(1H)-one], the inhibition constant (Ki) was over 10 µM in assay [1]; 8 µM in assay [2]; over 10 µM in assay [3]; over 10 µM at Histamine H4 receptor; over 10 µM in assay [4]; over 10 µM in assay [5]. The Ki was determined as 0.63 µM in assay [6] and 0.224 µM at Histamine H3 receptor.
